The record followed here is patent US20240124432A1, “HERBICIDAL COMPOUNDS” (SYNGENTA CROP PROTECTION AG, priority 2020, published 2024).

Type in all cases: in vivo
One assay has as its system ELEIN. Description: Post-emergence biological efficacy. The conditions noted are these: 312 h, evaluated after 13 days, read-out: damage to plant (100=total damage to plant; 0=no damage to plant). In short, it runs like this:
(§1)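 Damage was rated 13 days after treatment, from 0 (none) to 100 (total). Test compounds, formulated in IF50 and diluted with 0.2% Genapol XO80 to final dose, were sprayed on glasshouse plants raised for 14 days from seed.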

For assay [1], the system named is LOLPE. Description: Post-emergence biological efficacy. The settings on record: Lolium perenne, 312 h, evaluated after 13 days, read-out: damage to plant (100=total damage to plant; 0=no damage to plant). Put shortly:
as §1

Assay [2] concerns EPHHL. As to the kind of experiment: Post-emergence biological efficacy. The settings on record: Euphorbia heterophylla, 312 h, evaluated after 13 days, read-out: damage to plant (100=total damage to plant; 0=no damage to plant). In short, it runs like this: as §1
Assay [3] concerns AMAPA. Description: Post-emergence biological efficacy. The settings on record: Amaranthus palmeri, 312 h, evaluated after 13 days, read-out: damage to plant (100=total damage to plant; 0=no damage to plant). Put shortly:
as §1

The subject of the next assay is CHEAL. Description: Post-emergence biological efficacy. The settings on record: Chenopodium album, 312 h, evaluated after 13 days, read-out: damage to plant (100=total damage to plant; 0=no damage to plant). In short, it runs like this: as §1
The next assay deals with DIGSA. Description: Post-emergence biological efficacy. The conditions noted are these: Digitaria sanguinalis, 312 h, evaluated after 13 days, read-out: damage to plant (100=total damage to plant; 0=no damage to plant). In short, it runs like this: as §1
Assay [4] concerns IPOHE. As to the kind of experiment: Post-emergence biological efficacy. The settings on record: Ipomoea hederacea, 312 h, evaluated after 13 days, read-out: damage to plant (100=total damage to plant; 0=no damage to plant). In short, it runs like this:
as §1

The test system of assay [5] is SETFA. Description: Post-emergence biological efficacy. The conditions noted are these: Setaria faberi, 312 h, evaluated after 13 days, read-out: damage to plant (100=total damage to plant; 0=no damage to plant). Put shortly: as §1
The test system of assay [6] is ECHCG. As to the kind of experiment: Post-emergence biological efficacy. The settings on record: Echinochloa crus-galli, 312 h, evaluated after 13 days, read-out: damage to plant (100=total damage to plant; 0=no damage to plant). Put shortly:
as §1

In assay [7] the test system is LOLPE. As to the kind of experiment: Pre-emergence biological efficacy. The settings on record: Lolium perenne, 312 h, evaluated after 13 days, read-out: damage to plant (100=total damage to plant; 0=no damage to plant). Put shortly: (§2)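 Injury rating (0 = no damage, 100 = plant killed) taken 13 days after a single spray of compound at the chosen dose onto freshly sown pots held 1 day in the glasshouse beforehand.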

Assay [8] relates to EPHHL. Description: Pre-emergence biological efficacy. The settings on record: Euphorbia heterophylla, 312 h, evaluated after 13 days, read-out: damage to plant (100=total damage to plant; 0=no damage to plant). Put shortly: as §2
Assay [9] relates to AMAPA. As to the kind of experiment: Pre-emergence biological efficacy. The conditions noted are these: Amaranthus palmeri, 312 h, evaluated after 13 days, read-out: damage to plant (100=total damage to plant; 0=no damage to plant). In short, it runs like this:
as §2

For assay [10], the system named is IPOHE. As to the kind of experiment: Pre-emergence biological efficacy. The conditions noted are these: Ipomoea hederacea, 312 h, evaluated after 13 days, read-out: damage to plant (100=total damage to plant; 0=no damage to plant). Put shortly: as §2
The subject of assay [11] is SETFA. Description: Pre-emergence biological efficacy. The conditions noted are these: Setaria faberi, 312 h, evaluated after 13 days, read-out: damage to plant (100=total damage to plant; 0=no damage to plant). In short, it runs like this:
as §2

In assay [12] the test system is ECHCG. As to the kind of experiment: Pre-emergence biological efficacy. The conditions noted are these: Echinochloa crus-galli, 312 h, evaluated after 13 days, read-out: damage to plant (100=total damage to plant; 0=no damage to plant). In short, it runs like this:
as §2

For the compound `CCOC(=O)C1(C)CC(c2cc(-c3cnc4ccc(C(F)(F)F)cc4n3)c(F)cc2Cl)=NO1` (stereo not drawn) [Compound 1-763, Ethyl 3-[2-chloro-4-fluoro-5-[7-(trifluoromethyl)quinoxalin-2-yl]phenyl]-5-methyl-4H-isoxazole-5-carboxylate], the pest or weed control at 250 g/ha stood at 0% in the assay on ELEIN; 0% in the assay on LOLPE [1]; 20% in the assay with EPHHL [2]; 20% in the assay with AMAPA [3]; 20% in the assay with CHEAL; 0% in the assay with DIGSA. The pest or weed control at 250 g/ha in the assay with IPOHE [4] is 10%; in the assay with SETFA [5], 0%; with ECHCG [6] it was 0%; in the assay on LOLPE [7], 0%; with EPHHL [8], 0%; in the assay on AMAPA [9], 0%. For the same compound, the pest or weed control at 250 g/ha with IPOHE [10], in the assay with SETFA [11] and in the assay on ECHCG [12] was 0% throughout.
Take `CCOC(=O)C1(C)CC(c2cc(-c3c(Cl)cc(C(F)(F)F)c[n+]3[O-])ccc2Cl)=NO1` (stereo not drawn) [Compound 1-663, Ethyl 3-[2-chloro-5-(3-chloro-1-oxido-5-trifluoromethyl-2-pyridyl)-phenyl]-5-methyl-4H-isoxazole-5-carboxylate]: the pest or weed control at 250 g/ha with ELEIN, in the assay with LOLPE [1], in the assay with EPHHL [2], in the assay with AMAPA [3], in the assay on CHEAL and in the assay on DIGSA was 100% each time. Also, the pest or weed control at 250 g/ha was 100% in the assay with IPOHE [4]; 100% with SETFA [5]; 100% with ECHCG [6]; 50% with LOLPE [7]; 90% in the assay on EPHHL [8]; 100% in the assay with AMAPA [9]. The pest or weed control at 250 g/ha in the assay on IPOHE [10] came out at 90%; in the assay with SETFA [11], 40%; in the assay with ECHCG [12], 30%.
As for `CCOC(=O)C1(C)CC(c2cc(-c3ncc(C(F)(F)F)cc3Br)c(F)cc2Cl)=NO1` (stereo not drawn) [Compound 1-571, Ethyl 3-[5-[3-bromo-5-(trifluoromethyl)-2-pyridyl]-2-chloro-4-fluoro-phenyl]-5-methyl-4H-isoxazole-5-carboxylate], the pest or weed control at 250 g/ha in the assay with ELEIN worked out at 90%; with LOLPE [1], 90%; in the assay with EPHHL [2], 100%; in the assay with AMAPA [3] it was 100%; with CHEAL it was 100%; with DIGSA it was 60%. In addition, the pest or weed control at 250 g/ha in the assay with IPOHE [4] came to 70%; in the assay on SETFA [5] it was 90%; in the assay with ECHCG [6], 30%; in the assay with LOLPE [7], 70%; in the assay with EPHHL [8] it was 0%; in the assay on AMAPA [9] it was 100%. Moreover, the figures for the pest or weed control at 250 g/ha in the assay on IPOHE [10], with SETFA [11] and with ECHCG [12] were 0%, 10% and 10%, respectively.
For the compound `CCOC(=O)C1(C)CC(c2cc(-c3cccnc3)c(F)cc2Cl)=NO1` (stereo not drawn) [Compound 1-247, Ethyl 3-[2-chloro-4-fluoro-5-(3-pyridyl)phenyl]-5-methyl-4H-isoxazole-5-carboxylate], the pest or weed control at 250 g/ha in the assay with ELEIN worked out at 10%; with LOLPE [1], 0%; with EPHHL [2] it was 10%; with AMAPA [3], 0%; in the assay with CHEAL, 0%; with DIGSA, 0%. The pest or weed control at 250 g/ha with IPOHE [4] came to 0%; in the assay with SETFA [5] it was 0%; in the assay on ECHCG [6], 0%; in the assay on LOLPE [7], 0%; in the assay with EPHHL [8], 0%; with AMAPA [9] it was 60%. Moreover, the pest or weed control at 250 g/ha in the assay on IPOHE [10], in the assay on SETFA [11] and with ECHCG [12] was 0% in each case.
`CCOC(=O)C1(C)CC(c2cc(-c3cnc(C)cn3)c(F)cc2Cl)=NO1` (stereo not drawn) [Compound 1-739, Ethyl 3-[2-chloro-4-fluoro-5-(5-methylpyrazin-2-yl)phenyl]-5-methyl-4H-isoxazole-5-carboxylate]: the pest or weed control at 250 g/ha was determined as 50% in the assay with ELEIN; 0% in the assay on LOLPE [1]; 40% in the assay with EPHHL [2]; 50% with AMAPA [3]; 50% with CHEAL; 30% in the assay with DIGSA. Also, the pest or weed control at 250 g/ha in the assay with IPOHE [4] was 50%; in the assay with SETFA [5], 30%; in the assay on ECHCG [6], 30%; with LOLPE [7] it was 0%; in the assay with EPHHL [8] it was 0%; in the assay on AMAPA [9], 0%. The pest or weed control at 250 g/ha in the assay on IPOHE [10], with SETFA [11] and with ECHCG [12] was 0% each time.
With `CCOC(=O)C1(C)CC(c2cc(-c3cncc(C(F)(F)F)n3)c(F)cc2Cl)=NO1` (stereo not drawn) [Compound 1-727, Ethyl 3-[2-chloro-4-fluoro-5-[6-(trifluoromethyl)pyrazin-2-yl]phenyl]-5-methyl-4H-isoxazole-5-carboxylate], the pest or weed control at 250 g/ha in the assay on ELEIN amounted to 80%; with LOLPE [1] it was 20%; in the assay on EPHHL [2], 70%; with AMAPA [3], 70%; in the assay on CHEAL, 70%; with DIGSA it was 70%. For the same compound, the pest or weed control at 250 g/ha in the assay with IPOHE [4] was 100%; with SETFA [5], 90%; in the assay with ECHCG [6] it was 90%; in the assay with LOLPE [7] it was 0%; in the assay on EPHHL [8], 10%; with AMAPA [9] it was 0%. The results for the pest or weed control at 250 g/ha in the assay on IPOHE [10], in the assay with SETFA [11] and in the assay on ECHCG [12] were 20%, 10% and 30%, respectively.
As for `CCOC(=O)C1(C)CC(c2cc(-c3ncc(C(F)(F)F)cc3Cl)c(F)cc2Cl)=NO1` (stereo not drawn) [Compound 1-103, Ethyl 3-[2-chloro-5-(3-chloro-5-trifluoromethyl-2-pyridyl)-4-fluoro-phenyl]-5-methyl-4H-isoxazole-5-carboxylate], the pest or weed control at 250 g/ha in the assay on ELEIN, in the assay on LOLPE [1], in the assay on EPHHL [2], with AMAPA [3], with CHEAL and with DIGSA was 100% each time. Moreover, the pest or weed control at 250 g/ha turned out to be 100% in the assay on IPOHE [4]; 100% in the assay on SETFA [5]; 100% in the assay on ECHCG [6]; 80% in the assay with LOLPE [7]; 100% in the assay on EPHHL [8]; 100% with AMAPA [9]. Also, the pest or weed control at 250 g/ha in the assay on IPOHE [10] is 100%; in the assay with SETFA [11], 80%; with ECHCG [12] it was 90%.
Turning to `CCOC(=O)C1(C)CC(c2cc(-c3ncc(C(C)=O)cc3Cl)c(F)cc2Cl)=NO1` (stereo not drawn) [Compound 1-631, Ethyl 3-[5-(5-acetyl-3-chloro-2-pyridyl)-2-chloro-4-fluoro-phenyl]-5-methyl-4H-isoxazole-5-carboxylate], the pest or weed control at 250 g/ha in the assay on ELEIN is 10%; with LOLPE [1], 0%; in the assay on EPHHL [2], 20%; with AMAPA [3], 10%; with CHEAL, 20%; in the assay on DIGSA, 30%. Further, the pest or weed control at 250 g/ha amounted to 40% in the assay with IPOHE [4]; 10% in the assay with SETFA [5]; 40% in the assay with ECHCG [6]; 0% with LOLPE [7]; 0% with EPHHL [8]; 0% in the assay on AMAPA [9]. Further, the pest or weed control at 250 g/ha in the assay on IPOHE [10], in the assay on SETFA [11] and with ECHCG [12] was 0% in each case.
